Assays:
[1] = Plasma concentration in Swiss nu/nu mouse xenografted with human LoVo cells at 50 mg/kg, po qd after 8 hrs; format: ADME, organism-based
physchem = settings: octanol/phosphate buffer, pH 7.4
Rattus norvegicus [2] = experiment: Dose normalized AUC in Han-Wistar rat at 4 umol/kg, po; format: ADME, organism-based; settings: in vivo
[3] = Apparent permeability across apical to basolateral side in human Caco2 cells at 10 uM at pH 7.4; format: ADME, cell-based; settings: Caco-2, pH 7.4
[4] = Plasma concentration in Swiss nu/nu mouse xenografted with human LoVo cells at 25 mg/kg, po bid after 8 hrs; format: ADME, organism-based
in vitro [5] = settings: human, hepatocytes
in vitro [6] = settings: rat, hepatocytes
Rattus norvegicus [7] = experiment: Dose normalized AUC in Han-Wistar rat at 10 umol/kg, po; format: ADME, organism-based; settings: in vivo
[8] = Apparent permeability across apical to basolateral side in human Caco2 cells at 10 uM at pH 6.5; format: ADME, cell-based; settings: Caco-2, pH 6.5
[9] = Plasma concentration in Swiss nu/nu mouse xenografted with human LoVo cells at 12.5 mg/kg, po bid after 8 hrs; format: ADME, organism-based
[10] = Plasma concentration in Swiss nu/nu mouse xenografted with human LoVo cells at 25 mg/kg, po qd after 8 hrs; format: ADME, organism-based
[11] = Elimination half life in human; format: ADME, organism-based; settings: in vivo, read-out: beta t1/2 (converted)
Canis familiaris = experiment: Clearance in Beagle dog at 10.5 umol/kg, iv or […], po relative to liver blood flow; format: ADME, organism-based, Canis lupus familiaris; settings: in vivo
[12] = Volume of distribution at steady state in Han Wistar rat at 8.55 umol/kg, iv or 20.3 umol/kg, po; format: ADME, organism-based; settings: in vivo, read-out: Vdss
[13] = Intrinsic clearance in human hepatocytes assessed as per million cells at 1 uM; format: ADME, cell-based, Hepatocyte; settings: read-out: CLH
[14] = Plasma concentration in Swiss nu/nu mouse xenografted with human LoVo cells at 75 mg/kg, po qd after 8 hrs; format: ADME, organism-based
Rattus norvegicus [15] = experiment: Clearance in Han Wistar rat at 8.55 umol/kg, iv or 20.3 umol/kg, po relative to liver blood flow; format: ADME, organism-based; settings: in vivo
[16] = Oral bioavailability in Han Wistar rat at 20.3 umol/kg; format: ADME, organism-based; settings: in vivo
[17] = Volume of distribution at steady state in Beagle dog at 10.5 umol/kg, iv or […], po; format: ADME, organism-based, Canis lupus familiaris; settings: in vivo, read-out: Vdss
[18] = Oral bioavailability in Beagle dog at […]; format: ADME, organism-based, Canis lupus familiaris; settings: in vivo

`C[C@@H]1COCCN1c1cc(C2(S(C)(=O)=O)CC2)nc(-c2cccc3[nH]ccc23)n1` gave a concentration at 8 h [1] of 3500 nM, a logD at 3 h, 10 µM (physchem) of 2.5 and an AUC/dose (Rattus norvegicus [2]) of 1 µM·h. The Papp A→B at 10 µM [3] was 37 ×10⁻⁶ cm/s and the concentration at 8 h [4] was 1800 nM.

With `CS(=O)(=O)C1(c2cc(N3CCOCC3)nc(-c3cccc4[nH]ccc34)n2)CC1` the logD at 3 h, 10 µM (physchem) was 2.3.

`CS(=O)(=O)C1(c2cc(N3CCOCC3)nc(-c3cccc4[nH]cnc34)n2)CC1` gave a logD at 3 h, 10 µM (physchem) of 2.2.

`CNC(=O)c1cc(-c2nc(N3CCOCC3)cc(C3(S(C)(=O)=O)CC3)n2)c2cc[nH]c2c1` gave a logD at 3 h, 10 µM (physchem) of 1.6.

Work on `C[C@@H]1COCCN1c1cc(C2([S@@](C)(=N)=O)CC2)nc(-c2ccnc3[nH]ccc23)n1` yielded a logD at 3 h, 10 µM (physchem) of 1.8.

In the case of `CNc1nc2ccccc2n1-c1nc(N2CCOC[C@H]2C)cc(C2([S@](C)(=N)=O)CC2)n1`, the hepatocyte CLint at 1 µM (in vitro [5]) is reported as under 3 µL/min/1e6 cells, the concentration at 8 h [1] is reported as 940 nM and the logD at 3 h, 10 µM (physchem) is reported as 2.1. The Papp A→B at 10 µM [3] was 8 ×10⁻⁶ cm/s, the hepatocyte CLint at 1 µM (in vitro [6]) was 11 µL/min/1e6 cells and the AUC/dose (Rattus norvegicus [7]) was 0.35 µM·h.

`C[C@@H]1COCCN1c1cc(C2(S(C)(=N)=O)CC2)nc(-c2cncc3[nH]ccc23)n1` (some centres undefined) gave a logD at 3 h, 10 µM (physchem) of 1.4.

Work on `CC(=O)Nc1nc2ccccc2n1-c1nc(N2CCOC[C@H]2C)cc(C2(S(C)(=O)=O)CC2)n1` yielded a logD at 3 h, 10 µM (physchem) of 1.8.

Compound `CS(=O)(=O)C1(c2cc(N3CCOCC3)nc(-c3cncc4[nH]ccc34)n2)CC1` has a logD at 3 h, 10 µM (physchem) of 1.8.

`CS(=O)(=O)C1(c2cc(N3CCOCC3)nc(-c3ccnc4[nH]ccc34)n2)CC1` showed a logD at 3 h, 10 µM (physchem) of 2.2.

`C[C@@H]1COCCN1c1cc(C2(S(C)(=O)=O)CC2)nc(-c2cncc3[nH]ccc23)n1` showed a hepatocyte CLint at 1 µM (in vitro [5]) of under 3 µL/min/1e6 cells, a logD at 3 h, 10 µM (physchem) of 2.1 and an AUC/dose (Rattus norvegicus [2]) of 0.08 µM·h. For the same compound, the Papp A→B at 10 µM [8] was 8 ×10⁻⁶ cm/s, the hepatocyte CLint at 1 µM (in vitro [6]) was 10 µL/min/1e6 cells and the concentration at 8 h [9] was 220 nM. The concentration at 8 h [10] was 780 nM.

With `CNc1nc2ccccc2n1-c1nc(N2CCOC[C@H]2C)cc(C2([S@@](C)(=N)=O)CC2)n1` the logD at 3 h, 10 µM (physchem) was 2.1.

For `C[C@@H]1COCCN1c1cc(C2([S@+](C)[O-])CC2)nc(-c2ccnc3[nH]ccc23)n1`, the logD at 3 h, 10 µM (physchem) was 2.5.

In the case of `CS(=O)(=O)C1(c2cc(N3CC4CCC(C3)O4)nc(-c3cncc4[nH]ccc34)n2)CC1`, the logD at 3 h, 10 µM (physchem) is reported as 2.2.

For `C[C@@H]1COCCN1c1cc(C2(S(C)(=O)=O)CC2)nc(-c2ccnc3[nH]ccc23)n1`, the logD at 3 h, 10 µM (physchem) was 2.6.

`CS(=O)(=O)C1(c2cc(C3=CCOCC3)nc(-c3cccc4[nH]ccc34)n2)CC1` showed a logD at 3 h, 10 µM (physchem) of 2.9.

`C[C@@H]1COCCN1c1cc(C2(S(C)(=O)=O)CC2)nc(-n2c(N)nc3ccccc32)n1` showed a logD at 3 h, 10 µM (physchem) of 2.5.

Work on `C[C@H]1COCCN1c1cc(C2(S(C)(=O)=O)CC2)nc(-c2cncc3[nH]ccc23)n1` yielded a logD at 3 h, 10 µM (physchem) of 2.2.

`CNc1nc2ccccc2n1-c1nc(N2CCOC[C@H]2C)cc(C2(S(C)(=O)=O)CC2)n1` gave a hepatocyte CLint at 1 µM (in vitro [5]) of under 3 µL/min/1e6 cells, a logD at 3 h, 10 µM (physchem) of 2.8 and a Papp A→B at 10 µM [3] of 53 ×10⁻⁶ cm/s. For the same compound, the concentration at 8 h [4] was 8300 nM, the hepatocyte CLint at 1 µM (in vitro [6]) was 25 µL/min/1e6 cells and the AUC/dose (Rattus norvegicus [7]) was 0.4 µM·h.

For `CS(=O)(=O)C1(c2cc(N3CCOCC3)nc(-n3c(N)nc4ccccc43)n2)CC1`, the logD at 3 h, 10 µM (physchem) was 2.2.

`CS(=O)(=O)C1(c2cc(N3C4CCC3COC4)nc(-c3cncc4[nH]ccc34)n2)CC1` gave a logD at 3 h, 10 µM (physchem) of 2.1.

`C[C@@H]1COCCN1c1cc(C2([S@@+](C)[O-])CC2)nc(-c2ccnc3[nH]ccc23)n1` gave a logD at 3 h, 10 µM (physchem) of 2.5.

Compound `C[C@@H]1COCCN1c1cc(C2([S@](C)(=N)=O)CC2)nc(-c2cc[nH]c3nccc2-3)n1` [CERALASERTIB] has a half-life [11] of 11 h, a hepatocyte CLint at 1 µM (in vitro [5]) of under 3 µL/min/1e6 cells and a concentration at 8 h [1] of 2200 nM. For the same compound, the CL (Canis familiaris) was 10%, the logD at 3 h, 10 µM (physchem) was 1.9 and the Vd [12] was 3.1 L/kg. The hepatocyte CLint at 1 µM [13] was 2 µL/min/1e6 cells, the Papp A→B at 10 µM [3] was 12 ×10⁻⁶ cm/s and the concentration at 8 h [14] was 2600 nM. The CL (Rattus norvegicus [15]) was 22%, the bioavailability [16] was 67% and the concentration at 8 h [4] was 740 nM. The Vd [17] was 1 L/kg, the Papp A→B at 10 µM [8] was 6.8 ×10⁻⁶ cm/s and the hepatocyte CLint at 1 µM (in vitro [6]) was under 3.5 µL/min/1e6 cells. It also gave an AUC/dose (Rattus norvegicus [7]) of 0.8 µM·h and a bioavailability [18] of 100%.

From ChEMBL document CHEMBL4266018, “Discovery and Characterization of AZD6738, a Potent Inhibitor of Ataxia Telangiectasia Mutated and Rad3 Related (ATR) Kinase with Application as an Anticancer Agent” (J Med Chem, 2018)
